Laboratory results taken from a melting point compilation (Tetko et al.; mined from patent text by program, amines drawn as free bases though some values may be those of a salt).

melting point [°C] | SMILES
> 280 | N#Cc1ccc2c(c1)C(CCC1CC1)(C(F)(F)F)c1nc[nH]c(=O)c1N2 (stereo unspecified)
108 to 109 | CSc1ccc(CSc2nnc(-c3ccc4c(c3)CCO4)o2)cc1C(F)(F)F
141 to 143 | CN1CC(C(=O)c2ccc(Cc3ccc(F)cc3)o2)=C(O)C1=O
89 to 91 | CNC(=O)c1cc(SC)cc(N)n1
71 to 72 | O=C1CC(c2ccccc2)Cc2nccc(Cl)c21 (stereo unspecified)
82 to 84 | Cc1ccc(-c2cc3c(s2)CCCCC3=O)cc1
154 to 156 | COc1ccc(-c2c(-c3cc(OC)c(OC)c(OC)c3)ncn2-c2cc(OC)c(OC)c(OC)c2)cc1O
180 to 184 | CCC1c2cccn2-c2ccc(F)cc2N1S(=O)(=O)c1ccc(O)c(Cl)c1 (stereo unspecified)
146 to 148 | Cn1nnnc1SCC1=NCCc2cc(OCc3ccccc3)c(OCc3ccccc3)cc21
> 240 | COc1cc2c(cc1C(F)(F)F)N(C(=O)Nc1csc(-c3cnccn3)n1)CC2
198 | O=[N+]([O-])c1ccc(-n2cncn2)cc1
82 to 84 | Cc1cc(C(=O)NCCO)ncc1C(c1cc(F)ccc1F)S(=O)(=O)c1cc(F)cc(F)c1 (stereo unspecified)
191 to 193 | Cc1cc(S(=O)(=O)N2c3cc(F)ccc3-n3cccc3C2C)ccc1O (stereo unspecified)
200 to 203 | CCCCNC(=O)NS(=O)(=O)c1cccc2c1OC(C)(C)C2
165 to 168 | O=C1N=NC(CO)=C1c1ccccc1
184 | O=C(c1cccnc1)c1ccc([N+](=O)[O-])c(CO)c1
164 | CC(C#N)C(O)(Cn1cncn1)c1ccc(Cl)cc1Cl (stereo unspecified)
240 to 241 | Oc1ccc2c(c1)CCC(n1cc[nH]c1=S)C2 (stereo unspecified)
217 | CC1(C)Cc2c(c(N3CCCC3)nc3sc4c(NCCCN5CCCC5=O)ncnc4c23)CO1
115 to 120 | NCCn1c(=O)nc(-c2ccc3c(c2)OCO3)c2cc3c(cc21)OCO3

melting point [°C] | SMILES
101 | COc1cc(-c2nc3ccc(OCCN(C(C)C)C(C)C)cc3n2Cc2ccccc2)cc(OC)c1OC
66 to 69 | Cc1nc(CN(C)C(=O)N[C@H](C(=O)N[C@@H](Cc2ccccc2)[C@@H](O)C[C@H](Cc2ccccc2)NC(=O)OCc2cccnc2)C(C)C)cs1
102 to 105 | CCCCCCCCCCCCSc1nnn(C(C(N)=O)(c2ccccc2)c2c(C(C)C)cccc2C(C)C)n1 (stereo unspecified)
82 to 83 | C=CCN1CCCCNC1=C[N+](=O)[O-]
96 to 98 | O=C1C2C3C=CC(C3)C2C(=O)N1OS(=O)(=O)CCSC1CCCCC1 (stereo unspecified)
81 to 83 | CCCOc1ccnc(CS(=O)c2nc3ccccc3[nH]2)c1C (stereo unspecified)
131 to 132 | O=C(Nc1cccc2cc(C(=O)N3CCCCC3)[nH]c12)c1cccs1
109 to 110 | CCCc1c(OCCCOc2ccc3c(c2CCC)OC(CCC(=O)O)CC3)ccc(C(C)=O)c1O (stereo unspecified)
127 to 128 | CNc1cc(N2CCOCC2)nc(N2CCOCC2)n1
130 to 132 | CCCCC(=O)N(Cc1ccc(-c2ccccc2S(=O)(=O)N=CN(C)C)cc1)C(C#N)C(=O)OCC (stereo unspecified)
171 to 172 | CC1(C)OC(=O)C(Oc2ccc3ncccc3c2)=C1c1ccc(S(C)(=O)=O)cc1
207 to 210 | O=C(Nc1ccc(CO)cc1)C1=Cc2cc(-c3ccccc3)ccc2CC1
92 to 94 | O=C(NC(CS)Cc1ccccc1)N1CCCC1 (single isomer, unassigned; (+))
153 to 156 | N=C(Nc1ccc(Cl)cc1)Nc1ncccc1OCc1c(F)ccc(F)c1F
107 to 109 | [N-]=[N+]=C1C(=O)c2ccccc2-c2ccccc21
188 to 189 | COc1cccc(C(N)=O)c1SSc1c(OC)cccc1C(N)=O
146 to 148 | Cc1ccc2c(c1)C(=O)CCC21CCC(=O)N(C)C1=O (stereo unspecified)
150 to 151 | COc1ccc2c(c1)C(Cl)CC1C2C(O)CC2(C)C(O)CCC12 (stereo unspecified)
236 to 237 | Cc1ccc(-c2ccc3c(c2)C=C(C(=O)O)CO3)cc1
120 to 122 | C[C@@H]1NCC[C@@H]1C(C)(C)O

melting point [°C] | SMILES
130 to 133 | Cc1noc(NS(=O)(=O)c2ccc(C(C)C)cc2)c1Br
98 to 100 | O=C(CCCN1CCC2(CC1)SC(c1ccc(Cl)cc1)c1ccccc12)c1ccc(F)cc1F (stereo unspecified)
103 to 105 | CCOC(=O)C(=O)Nc1cc(CC)c(C(=O)OCC)s1
148 to 150 | CCCn1nc2c(N)nc3ccccc3c2c1CC(C)(C)NC(=O)c1ccncc1
119 | CCOC(=O)Cc1cc(C(=O)OC)ccc1NC(C)=O
110 | CN(C)CCNc1ncc(C(=O)N(C)Cc2cc(C(F)(F)F)cc(C(F)(F)F)c2)c(-c2ccccc2)n1
124 to 126 | CCCCNC(=O)Oc1ccc2oc3ccccc3c2c1
145 to 146 | NS(=O)(=O)c1ccccc1OC(F)(F)C(F)(F)F
111 to 112 | CC(C)(C)[Si](C)(C)OC1CCN(S(=O)(=O)c2ccc(N3CCCCC3)cc2)C1=O (stereo unspecified)
140 | CCS(=O)(=O)N(CCN(C)C(C)=O)c1ccc(N)cc1
75 | O=C(O)CCCC1Cc2ccccc2C1
123 to 125 | COc1ccc(-c2ccc(-c3cc(NC(Cc4ccccc4)C(=O)O)ncn3)cc2)cc1 (stereo unspecified)
75 to 77 | O=C(O)COCCc1ccc(Cl)cc1
170 to 172 | CC(=O)N1c2ccccc2-c2c(N)cnn2C1C (stereo unspecified)
44 to 45 | C=Cc1c(C(=O)OC)cccc1[N+](=O)[O-]
172 | COc1ccc2ccc(NC(=O)c3cccc(OC(C)=O)c3)nc2n1
175 to 176 | COc1nc(-c2ccccc2F)c2ccsc2n1
95 to 97 | CCCCCCNCCC(=O)O

More lines, now with the values behind:

SMILES | melting point [°C]
Cn1cnc(S(=O)(=O)Nc2cccc(C=C3c4ccccc4CCc4ccccc43)c2)c1 | 257
c1cc(N2CCNCC2)cnn1 | > 300
CCOc1cc2c(cc1OCC)C(=C(C#N)SCC(CN1CCOCC1)OC(C)=O)NCC2 (stereo unspecified) | 133
O=C1Cc2cccc(S(=O)(=O)c3ccccc3)c2N1 | 217 to 220
OC(CCl)COc1ccc(-c2nc(C(F)(F)F)c[nH]2)cc1 (stereo unspecified) | 181 to 183
O=[N+]([O-])c1ccc(N2CCC2)nc1 | 132 to 134
CCOC(=O)c1csc2c1N(O)CCC2 | 252 to 253
O=C(Nc1ccc([N+](=O)[O-])cc1)N1CCN(c2ncnc3ccccc23)CC1 | 155 to 158
O=C1Cc2cc(F)ccc2Oc2ccccc21 | 63 to 64
O=CC1=C(Br)CC(F)(Br)C=C1 (stereo unspecified) | 57 to 58
O=C(COc1ccc(CCC(=O)C(F)(F)F)cc1)NC(c1ccc(Cl)cc1)c1ccc(Cl)cc1 | 145 to 146
CCOC(=O)c1c2ccc(CC(=O)NOCC(=O)N3CCCCC3)ccc-2c(C(=O)OCC)c1N | 153 to 155
N#CC=C1CCc2ccc3ncoc3c21 | 166 to 168
O=C(Nc1ccc(-n2nc(C(F)(F)F)cc2C(F)(F)F)cc1)c1cccs1 | > 230
Cc1cc(C)nc(NCC#N)c1 | 92 to 93
O=C1N[C@H](Cc2ccc(C(F)(F)F)cc2)[C@H](c2ccc(Oc3ccccc3)cc2)O1 (racemic) | 110 to 111
CC(C)(C)OC(=O)NCCNC(=O)c1cccc2c1c(C(=O)C(=O)NC1=CC(=O)OC1)cn2Cc1ccc(Cl)cc1 | 218 to 219
O=C1C(=O)c2ccccc2C2=C1SCC1(CCN(C(=O)c3cc4ccccc4s3)CC1)O2 | 110 to 112
O=[N+]([O-])c1ccccc1C1=NCC(=S)Nc2sc(Cl)cc21 | 213 to 215
CCCCNC(=S)Nc1cc(Cl)ccc1N1CCOCC1 | 150 to 152
COc1ccccc1NC(=O)Nc1nc(Nc2ccccc2-c2ccccc2)nc(N(CCC(=O)O)Cc2cccc(F)c2)n1 | 115 to 128
COc1ccc(-c2nc(C)c(Br)[nH]2)cc1 | 179 to 184

SMILES | melting point [°C]
CC(C)N(CCC(CCN1CCCCC1)(C(N)=O)c1ccccc1Cl)Cc1ccccc1 (stereo unspecified) | 104 to 111
Cc1c2ccncc2c(C)c2c1[nH]c1ccc(O)cc12 | 307 to 309
CNC(=O)NS(=O)(=O)c1cc2c(cc1OC)OCCC2CNC(=O)c1cc(Cl)ccc1OC (single isomer, unassigned; (+)) | 147 to 148
Cc1cccc(Nc2cc(Cl)nc(SCC(=O)O)n2)c1C | 146 to 151
CCOC(=O)C(=O)c1cn(Cc2ccc(C(C)(C)C)cc2)c2cc(-c3ccc(C(F)(F)F)cc3)ccc12 | 164 to 165
O=C(c1cc2cc3[nH]c(=O)oc3cc2[nH]1)N1CCC(OCc2ccccc2)CC1 | 258 to 261
C[C@H]1[C@H](N)CN1C(c1ccccc1)c1ccccc1 (relative stereo) | 68 to 69
C#CCOC(=O)N(I)C(C)C(=O)OC (stereo unspecified) | 100 to 102
COc1cc2c(cc1Nc1ncc(Cl)c(Nc3ccc(N4CCOCC4)cc3)n1)CCN(CC(=O)N(C)C)CC2 | 227 to 242
COC(=O)c1ccc(-c2nc(-c3ccc4c(c3)C(C)(C)CCC4(C)C)no2)cc1 | 166 to 168
COC(=O)COc1cc(C(=O)OC)nc2ccccc12 | 121 to 123
CCOC(=O)NCCc1cccc(C(=O)C=CN(C)C)c1 | 45 to 50
N#CC(=NOCCn1cncn1)C(N)=O | 137
CC1CC(=O)NN=C1c1ccc(N2CCC(CN3C(=O)c4ccccc4C3=O)CC2)c([N+](=O)[O-])c1 (stereo unspecified) | 256 to 258
CC1=Nc2c3cc(C(=O)O)nc-3ccn2C1 | 325 to 327
Cc1cc(F)nc(-c2ccc(F)cc2)c1 | 49
COc1ccc(-c2nnc3c4ccccc4c(Nc4ccc(C#N)cc4)nn23)cc1 | 314
CC(=O)Nc1cc(Cl)c(C(C#N)c2ccc(Cl)c(C(F)(F)F)c2)c(Cl)c1 (stereo unspecified) | 172
NC(=O)c1cc(Cl)c(F)c(Cl)c1F | 145 to 147
CC=Cc1nc2c(C(F)(F)F)cccc2c(O)c1C(=O)Nc1nccs1 | 265
COC(=O)c1c(O)ccc(CNC(=O)CCCCCNC(=O)OC(C)(C)C)c1O | 73 to 76
